Two molecules from PMC3729937 (Biochemical and biophysical research communications, 2012) can be followed below.

Assay [1] addresses FGFR2 D2 domain (Homo sapiens, UniProt P21802, A168S). Briefly: ITC, supported by 1H-15N HSQC chemical shift perturbation. The class given is binding.
Assay [2] has as its target FGFR2 D2 domain (Homo sapiens, UniProt P21802). Briefly: ITC. The class given is binding.
In assay [3] the target is fibroblast growth factor (FGF-1) (UniProt P05230 16-155). Briefly: ITC.
fibroblast growth factor (FGF-1), sequence (P05230 16-155): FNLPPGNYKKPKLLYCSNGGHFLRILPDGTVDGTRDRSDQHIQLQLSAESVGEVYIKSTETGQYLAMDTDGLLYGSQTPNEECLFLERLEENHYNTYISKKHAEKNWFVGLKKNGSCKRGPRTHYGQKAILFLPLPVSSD

FGFR2 D2 domain (Homo sapiens, UniProt P21802, A168S), sequence (P21802 145-255 A168S): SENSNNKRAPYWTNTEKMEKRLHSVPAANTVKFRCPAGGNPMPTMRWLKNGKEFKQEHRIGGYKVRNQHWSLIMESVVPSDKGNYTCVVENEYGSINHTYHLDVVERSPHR

For the molecule `O=S(=O)(O)OC[C@H]1O[C@@](COS(=O)(=O)O)(O[C@H]2O[C@H](COS(=O)(=O)O)[C@@H](OS(=O)(=O)O)[C@H](OS(=O)(=O)O)[C@H]2OS(=O)(=O)O)[C@@H](OS(=O)(=O)O)[C@@H]1OS(=O)(=O)O` [SOS, sucrose octasulfate], the Kd is ~22000 nM in assay [1] and ~2200 nM in assay [2].

B1: wild type D2 domain of fibroblast growth factor receptor 2 (FGFR2), residues 145-255 (domain or fragment, human, UniProt P21802 145-255, looked up)
chain: SENSNNKRAPYWTNTEKMEKRLHAVPAANTVKFRCPAGGNPMPTMRWLKNGKEFKQEHRIGGYKVRNQHWSLIMESVVPSDKGNYTCVVENEYGSINHTYHLDVVERSPHR
Consider B1, for which the Kd in assay [3] is ~2000 nM.
